From patent publication US11685766B2, “14-3-3 targeting peptides for cancer treatment” (Creighton University, priority 2019, dated 2023)
Peptide text beside a SMILES is read from it.

Experiments:
[1] = target: T1, 14-3-3ε heterodimerization (Homo sapiens, UniProt P62258); assay: Co-immunoprecipitation / immunoblot of 14-3-3ε heterodimerization; type: cell-based; details: SCC12B.2 cells, 20 μM, 48 hours, vs vehicle
T1 construct: endogenous in cells; host or cells: SCC12B.2
T1 sequence (P62258 1-255): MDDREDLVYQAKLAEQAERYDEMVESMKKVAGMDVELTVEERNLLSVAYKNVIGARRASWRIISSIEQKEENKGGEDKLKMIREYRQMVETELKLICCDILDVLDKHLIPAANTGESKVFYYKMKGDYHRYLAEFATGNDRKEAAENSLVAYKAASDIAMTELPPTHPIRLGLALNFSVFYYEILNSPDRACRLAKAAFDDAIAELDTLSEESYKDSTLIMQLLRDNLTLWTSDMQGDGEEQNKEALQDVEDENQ
Method: Co-Immunoprecipitation was performed using a Dynabeads Protein G Immunoprecipitation kit (Life Technologies, Carlsbad, Calif., USA). Beads were coupled to antibodies targeting 14-3-3ε (Fisher Scientific, Waltham, Mass., USA) or Akt (Thermo Fisher) at a ratio of 7 μg of antibody for every 1 mg of beads according to the manufacturers protocol. SCC12B.2 cells were treated with vehicle (20 mM Tris buffer, pH 7.5) or fresh ES1P2 targeting peptide daily at the IC50 concentration for 48 hours in Opti-MEM I Reduced Serum Medium (Invitrogen) and collected by trypsinization. […]
Protein was collected by either standard whole-cell lysis using ice-cold radioimmunoprecipitation assay (RIPA) lysis buffer supplemented with protease (Roche Life Scientific) and phosphatase inhibitors (NaF, Na3VO4) or by nuclear/cytosolic extraction using the NE-PER Nuclear and Cytoplasmic Protein Extraction Reagent Kit according to the manufacturer's protocol (Pierce, Rockford, Ill., USA). […] Protein concentration was assessed with the Bradford assay. […] Bands were detected using horseradish peroxidase-conjugated secondary antibodies (IgG mouse or rabbit) (Cell Signaling) and visualized using western lightning plus chemiluminescent reagent (MidSci, Valley Park, Mo., USA) and signal read on a Chemidoc XRS Molecular Imager (Bio-Rad Laboratories, Hercules, Calif., USA).

[2] = target: T2, 14-3-3ε binding to CDC25A (Homo sapiens, UniProt P62258); assay: Co-immunoprecipitation / immunoblot of CDC25A bound to 14-3-3ε; type: cell-based; details: SCC12B.2 cells; for amount of CDC25A on immunoblots of immunoprecipitated 14-3-3ε: pS 30 μM, pT printed 2004, 48 hours, vs vehicle, P≤0.05
T2 construct: endogenous in cells; host or cells: SCC12B.2
T2 sequence (P62258 1-255): T1 sequence (P62258 1-255)
Method: Co-Immunoprecipitation (Co-IP) was performed using a Dynabeads Protein G Immunoprecipitation kit (Life Technologies, Carlsbad, Calif., USA). Beads were coupled to antibodies targeting 14-3-3ε (Fisher Scientific, Waltham, Mass., USA) or CDC25A (Santa Cruz Biotechnology, Dallas, Tex., USA) at a ratio of 7 μg of antibody for every 1 mg of beads according to the manufacturers protocol. SCC12B.2 cells were treated with vehicle (20 mM Tris buffer, pH 7.5) or fresh peptide (pS or pT) daily at the IC50 concentration for 48 hours in Opti-MEM I Reduced Serum Medium (Invitrogen) and collected by trypsinization. One hundred mg of cells were lysed in 1×IP buffer supplemented with 100 mM sodium chloride, 2 mM dithiothreitol, 1 mM magnesium chloride and protease/phosphatase inhibitors. Immunoprecipitation reactions were carried out using 1.5 mg of antibody-coupled beads incubated with 100 mg of cell lysate at 4° C. for 30 minutes. Negative controls were immunoprecipitation reactions using beads coupled to IgG isotype control antibody (rabbit), and whole lysate from immunoprecipitation input was loaded directly onto a gel was used as a positive control.
Protein was collected by either standard whole-cell lysis using ice-cold radioimmunoprecipitation assay (RIPA) lysis buffer supplemented with protease (Roche Life Scientific) and phosphatase inhibitors (NaF, Na3VO4) or by nuclear/cytosolic extraction using the NE-PER Nuclear and Cytoplasmic Protein Extraction Reagent Kit according to the manufacturer's protocol (Pierce, Rockford, Ill., USA). Tissue protein was extracted by using a tissue grinder to lyse cells in 100 μL of RIPA lysis buffer for every 1 mg of tissue. […] Protein concentration was assessed with the Bradford assay. […] Bands were detected using horseradish peroxidase-conjugated secondary antibodies (IgG mouse or rabbit) (Cell Signaling) and visualized using western lightning plus chemiluminescent reagent (MidSci, Valley Park, Mo., USA) and signal read on a Chemidoc XRS Molecular Imager (Bio-Rad Laboratories, Hercules, Calif., USA).

SMILES | 14-3-3ε heterodimerization [1] | 14-3-3ε precipitation, pS-treated compared to pT-treated samples ([2]; 48 hours) | amount of CDC25A on immunoblots of immunoprecipitated 14-3-3ε [2]
NCCCC[C@H](NC(=O)[C@H](Cc1c[nH]c2ccccc12)NC(=O)[C@H](Cc1ccc(O)cc1)NC(=O)[C@@H](N)Cc1c[nH]c2ccccc12)C(N)=O [ES1P2, Trp-Tyr-Trp-Lys-NH2] (H-WYWK-NH2) | reduces 14-3 3ε heterodimerization | – | –
CSCC[C@H](NC(=O)[C@H](CCCNC(=N)N)NC(=O)[C@@H]1CCCN1C(=O)[C@H](C)NC(=O)[C@H](COP(=O)(O)O)NC(=O)[C@H](CC(N)=O)NC(=O)[C@H](CCC(N)=O)NC(=O)[C@H](CCCNC(=N)N)NC(=O)[C@H](CCC(N)=O)NC(=O)[C@@H](NC(C)=O)[C@@H](C)O)C(=O)N[C@@H](CC(C)C)C(=O)N[C@@H](CO)C(=O)N[C@@H](CO)C(=O)N[C@@H](CC(N)=O)C(N)=O [pS, Ac-Thr-Gln-Arg-Gln-Asn-Ser-(PO3^2−)-Ala-Pro-Arg-Met-Leu-Ser-Ser-Asn-NH2] (HELM PEPTIDE1{[ac].T.Q.R.Q.N.[O=C([C@H](COP(=O)(O)O)N[*:1])[*:2]].A.P.R.M.L.S.S.N.[am]}$$$$V2.0) | – | less 14-3-3ε precipitation | decreases the amount of CDC25A
CC(=O)N[C@@H](CCCNC(=N)N)C(=O)N[C@H](C(=O)N[C@@H](CCCCN)C(=O)N[C@@H](CO)C(=O)N[C@@H](CCCNC(=N)N)C(=O)N[C@H](C(=O)N[C@@H](Cc1c[nH]c2ccccc12)C(=O)N[C@@H](C)C(=O)NCC(=O)N[C@@H](CCC(=O)O)C(=O)N[C@@H](CCCCN)C(=O)N[C@@H](CO)C(=O)N[C@@H](CCCCN)C(=O)N[C@@H](CCCNC(=N)N)C(N)=O)[C@@H](C)OP(=O)(O)O)[C@@H](C)O [pT, Ac-Arg-Thr-Lys-Ser-Arg-Thr(PO3^2−)-Trp-Ala-Gly-Glu-Lys-Ser-Lys-Arg-NH2] (HELM PEPTIDE1{[ac].R.T.K.S.R.[C[C@@H](OP(=O)(O)O)[C@H](N[*:1])C(=O)[*:2]].W.A.G.E.K.S.K.R.[am]}$$$$V2.0) | – | – | decreases the amount of CDC25A
